Results reported in paper PMC4949444 (Scientific Reports, 2016).

Columns and labels:
[1] = target: T1, CB2 receptor (Homo sapiens, UniProt P34972); test: CB2 receptor binding, [3H]CP55940 competition; settings: data not shown; read-out: predicted Ki, CB2 receptor
T1 construct: purchased Perkin-Elmer Life and Analytical Sciences, Boston, MA; host or cells: HEK293 EBNA cells stably expressing the receptor
Procedure: CB1 and CB2 receptor binding affinities were determined by competition studies using [^3H]CP55940 as radioligand and commercial membrane preparations of HEK293 EBNA cells stably expressing the respective receptor type (Perkin-Elmer Life and Analytical Sciences, Boston, MA), following a procedure previously described.

[2] = test system: Human mesenchymal stem cells (MSC); test: Adipogenic differentiation of human mesenchymal stem cells; format: cell-based
Source text: Figure 2 Effect of VCE-003.2 on adipogenic differentiation. Human mesenchymal stem cells (MSC) were differentiated in adipogenic medium (AM) in the presence of RZG or […] VCE-003.2 and adipogenic markers were characterized. (a) Quantification of oil red (ORO) positive cells after 21 days of differentiation. (b) Representative images of accumulated fat vesicles stained with oil red (Bar size, 50 μm). (c) Gene expression of PPAR-γ2, LPL, CEBPA, ADIPOQ and FABP4 in MSCs differentiated during 18 days. Data represent the percentage of increase over AM considered as the 100% of adipogenic induction. Experiments were performed from three different human MSC preparations each one obtained from a different bone marrow sample.
Reina Sofia University Hospital review board.

[3] = test system: 3NP-lesioned C57BL/6 mice; test: 3-nitropropionic acid (3NP) model of Huntington's disease; format: in vivo; settings: for COX-2 (2expΔΔct) / IL-6 (2expΔΔct) / TNF-α (2expΔΔct): striatum mRNA; for % GSH / % SOD activity / %Catalase activity: striatum
Procedure: Figure 7 VCE-003.2 is neuroprotective in 3NP-intoxicated mice. (a) Behavioural score was determined 12 hours after 3NP intoxication. Mice were treated with VCE-003.2 (20 mg/Kg) alone or combined with T0070907 (5 mg/kg) as indicated. Animals were also treated separately with either VCE-003.2 or T0070907 alone. Hind limb clasping, general locomotor activity, hind limb dystonia and kyphosis were rated from 0 to 2 based on severity (score 0 indicates normal function and 2 indicates the most severe affected function). Values are expressed as means ± SEM (n = 6). (b) Representative images of Nissl staining performed on coronal striatal brain sections from the same mice groups. Photomicrographs of NeuN (Bar size, 50 μm) Iba-1 and glial fibrillary acidic protein (GFAP) immunostained sections through the different group of mice are also shown. (c) Quantification of the different markers was performed with Image J software. Total average number of neurons (NeuN^+), microglia (Iba1^+) and astrocytes (GFAP^+) is shown. Values are expressed as means ± SEM (n = 6). *p < 0.05, **p < 0.01, ***p < 0.001 vs. Vehicle; ^#p < 0.05, ^##p < 0.01, ^###p < 0.001 vs. 3NP; †p < 0.05, ^††p < 0.01, ^†††p < 0.001 vs. the 3NP + VCE-003.2 group.
Mice were housed under standard conditions (12-h light/dark cycle) in groups with access to food and water ad libitum. All experiments were performed in accordance with European Union guideline and approved by the Animal Research Ethic Committee of Córdoba University (2014PI/017) (3NP model) and by the Animal Research Ethic Committee of Complutense University (CEA-UCM 73/2012) (QA model). Procedures were designed to minimize the number of animals used and their suffering. Excitotoxicity was induced by intrastriatal quinolinic acid (QA) administration (100 nmol in 1 μL PBS solution, unilaterally) as previously described[41] at the following coordinates: +0.6 posterior to bregma, +1.85 medio-lateral and -2.7 dorso-ventral to dura, in 12-week-old CD1 male mice (Harlan Ibérica, Barcelona, Spain). Pharmacological manipulation with VCE-003.2 (10 mg/kg body weight) was performed i.p. daily in 2% Tween 20 and 3% DMSO in saline buffer until sacrifice. Control animals received the corresponding vehicle injections. Motor function was assessed by RotaRod analysis conducted with acceleration from 4 to 40 rpm over a period of 570 s in an LE8200 device (Harvard Apparatus, Barcelona, Spain). […] 3NP-treated animals and their respective non-lesioned controls (injected with PBS) were used for pharmacological studies with VCE-003.2. Treatments consisted of 4 i.p. injections every 24 h with 20 mg/kg VCE-003.2 or vehicle (4% DMSO plus 6,2% Tween 20 in saline buffer), with the first and the last injections 30 min before the first and the last injections of 3NP, respectively. In some experiments, mice received a combination of VCE-003.2 and the PPARγ antagonist T0070907 (5 mg/kg) injected 15 minutes before VCE-003.2. In 3NP-lesioned mice, motor activity, hindlimb clasping, dystonia, and truncal dystonia were evaluated following previously described procedures. All behavioural tests were conducted prior to drug injections to avoid acute effects of the compounds under investigation and all animals were euthanized 12 h after the last injection of 3NP and their brains removed. The right hemispheres were used to dissect the striatum which was frozen in RNAlater (Sigma-Aldrich) and stored at −80 °C for biochemical analyses. The left hemispheres were fixed in fresh 4% paraformaldehyde (in 0.1 M PBS) for 48 h at 4 °C and embedded in paraffin wax for staining and immunohistochemical analysis. In all experiments, at least 6 animals were used per experimental group.
Free floating coronal brain slices ([…]) were processed as previously described. […]

[4] = 3NP-lesioned mice, + T0070907 5 mg/kg
[5] = 3NP-treated mice, VCE-003.2 20 mg/kg
[6] = 3NP-treated mice, VCE-003.2 20 mg/kg + T0070907 5 mg/kg
[7] = substance alone, mean ± SEM n=6
[8] = 3NP-treated mice, VCE-003.2 20 mg/kg, % of vehicle control
[9] = substance alone, % of vehicle-treated control

T1 sequence (P34972 whole entry): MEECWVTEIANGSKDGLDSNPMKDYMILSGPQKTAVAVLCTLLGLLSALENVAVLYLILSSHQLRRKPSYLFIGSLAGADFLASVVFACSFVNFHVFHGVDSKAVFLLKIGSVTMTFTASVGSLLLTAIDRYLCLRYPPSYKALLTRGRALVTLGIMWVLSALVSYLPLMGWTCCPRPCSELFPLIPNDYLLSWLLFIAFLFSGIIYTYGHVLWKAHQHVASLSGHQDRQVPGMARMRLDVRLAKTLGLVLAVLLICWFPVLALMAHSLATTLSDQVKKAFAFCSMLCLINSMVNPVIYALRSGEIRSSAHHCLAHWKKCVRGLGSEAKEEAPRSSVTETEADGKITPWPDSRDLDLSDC

CCCCCC1=C(NCC)C(=O)C(C/C=C(\C)CCC=C(C)C)=C(O)C1=O [VCE-003.2]
Ki [1]: > 40 µM | percentage of Oil Red O positive cells ([2]; 1 and 2.5 μM vs 1 μM RZG, adipogenic medium, 21 days): never achieved the percentage of Oil Red O positive cells (ORO^+) induced by RZG | lipid droplets (morphological examination) ([2]; compared to RZG): lipid droplets are less numerous and smaller | expression of adipogenic differentiation markers PPARγ, LPL, CEBPA, ADIPOQ, FABP4 ([2]; compared to cells treated with RZG): sensibly lower | loss of Nissl and NeuN+ cells in striatum ([3]; 3NP-lesioned mice, 20 mg/kg): rescued the loss of Nissl and NeuN^+-cells | microgliosis and astrogliosis (Iba1, GFAP) ([3]; 3NP-lesioned mice, 20 mg/kg): reduced 3NP-induced microgliosis and astrogliosis | motor deficits: hindlimb clasping, dystonia, kyphosis ([3]; 3NP-lesioned mice, 20 mg/kg i.p.): improved the motor deficits of 3NP-lesioned mice by reducing hindlimb clasping, dystonia and kyphosis | effect on motor deficits with PPARγ antagonist co-administered [3, 4]: abrogated | neuroprotective activity (Nissl, NeuN) with T0070907 co-administered [3, 4]: prevented the activity of VCE-003.2 | behavioural score, substance alone ([3]; mice given the substance alone): Neither VCE-003.2 nor T0070907 alone influenced the behavior of the animals | COX-2 (2expΔΔct) [3, 5]: 2.7 ± 0.07^### 2expΔΔct | IL-6 (2expΔΔct) [3, 5]: 1.79 ± 0.2^### 2expΔΔct | TNF-α (2expΔΔct) [3, 5]: 1.56 ± 0.576^## 2expΔΔct | COX-2 (2expΔΔct) [3, 6]: 8.91 ± 1^† 2expΔΔct | IL-6 (2expΔΔct) [3, 6]: 8.18 ± 2.9 2expΔΔct | TNF-α (2expΔΔct) [3, 6]: 3.83 ± 1.17 2expΔΔct | COX-2 (2expΔΔct) [3, 7]: 1.31 ± 0.75 2expΔΔct | IL-6 (2expΔΔct) [3, 7]: 1.14 ± 0.65 2expΔΔct | TNF-α (2expΔΔct) [3, 7]: 1.15 ± 058 2expΔΔct | % GSH [3, 6]: 121.48 ± 15.29% | % SOD activity [3, 6]: 121.46 ± 37.04% | %Catalase activity [3, 6]: 89.08 ± 5.7% | % GSH [3, 8]: 111.7 ± 12.6% | % SOD activity [3, 8]: 221.18 ± 26.91^# % | %Catalase activity [3, 8]: 88.82 ± 6.75^# % | % GSH [3, 9]: 101.81 ± 14.59% | % SOD activity [3, 9]: 115.62 ± 27.34% | %Catalase activity [3, 9]: 99.05 ± 6.1%
